Assay [1] has as its target T1, BCL-xL R103A/D107A/S110A/Q111A (Homo sapiens, UniProt Q07817, D107A/Q111A/R103A/S110A).
T1 construct: BCL-xL (aa 2-212) and BCL-2 (aa 1-207) transformed cells were grown in LB broth; SMT3 (N); made in house; host or cells: E. coli BL21 (DE3) codon plus
Kind of assay: AlphaScreen binary binding, BCL-xL R103A/D107A/S110A/Q111A. The note with it: mean ± s.d., n=3; read-out: Ki (nM, n=3), BCL-xL R103A/D107A/S110A/Q111AA. On the procedure:
(§1) To test the binary/ternary binding affinities of compounds to BCL-2/BCL-xL, AlphaScreen displacement binding assay was performed to test the capabilities of testing compounds to displace a Biotin-tagged Bim (Biotin-[…]) or Bad (Biotin-[…]) from BCL-2 or BCL-xL for BCL-2 and BCL-xL binding affinities, respectively. All reagents were diluted in assay buffer of 25 mM HEPES, pH 7.5, 150 mM NaCl, 0.1% BSA, and 0.005% tween 20 prior incubation. To a 96-well PCR plate (VWR, Cat. No. 82006-636) was added 10 μL Biotin-tagged Bim (15 nM for WT or 50 nM for mutants) or Bad (15 nM for WT or 50 nM for mutants), 10 μL series diluted compounds solution (2 or 3 or 4× dilution), and 10 μL self-made 6×His tagged BCL-2 WT or mutants (25 nM WT or 50 nM mutants) or 10 μL self-made BCL-xL WT and mutants (10 nM WT or 50 nM mutants). […] The luminescence signal was detected on a Biotek’s Synergy Neo2 multimode plate reader installed with an AphaScreen filter cube. The Ki values of each compounds were calculated by fitting data into the “Binding-competitive, One site-Fit Ki” function in GraphPad Prism (9.2.0) based on concentrations of Biotin–peptide used and experimentally determined Kd values of each 6×His protein &&&and Biotin–Peptide pair.

Assay [2] deals with T2, BCL-2 E114A (Homo sapiens, UniProt P10415, E114A).
T2 construct: BCL-xL (aa 2-212) and BCL-2 (aa 1-207) transformed cells were grown in LB broth; made in house; host or cells: E. coli BL21 (DE3) codon plus
The experiment in a line: AlphaScreen binary binding, BCL-2 E114A. As for the experimental part: as §1

In assay [3] the target is T3, HiBiT-BCL-xL/HaloTag-VHL (Homo sapiens, UniProt P40337+Q07817).
T3 construct: full-length BCL-xL and BCL-2 were expressed in cells for the nanoBRET assay; host or cells: 293T
Kind of assay: NanoBRET ternary complex formation assay in 293T cells, HiBiT-BCL-xL and HaloTag-VHL. It counts as cell-based. The settings on record: 4 h, MG132 pretreatment. On the procedure:
Plasmids HaloTag-VHL (Cat. No. CS1679C155) and CMV HiBiT (Cat. No. CS1956B03) were purchased from Promega. HiBiT-BCL-xL and HiBiT-BCL-2 were constructed previously. 293T cells (8 × 10^5 cells/well in a 6-well plate) were transfected with Lipofectamine (Life Technologies) and 1 μg HaloTag-VHL, 20 ng HiBiT-BCL-xL and 20 ng LgBiT or 1 μg HaloTag-VHL, 20 ng HiBiT-BCL-2 and 20 ng LgBiT. After 48 h, 2 × 10^4 transfected cells were seeded into each well of white 96-well tissue culture plates in Gibco™ Opti-MEM™ I Reduced Serum Medium, No Phenol Red (Cat. No. 11-058-021, Fisher) containing 4% FBS with or without HaloTag NanoBRET 618 Ligand (Cat. No. PRN1662, Promega) and incubated overnight at 37 °C, 5% CO2. […] After treatment, NanoBRET Nano-Glo Substrate (cat. no. N1662, Promega) was added into the medium, and the contents were mixed by shaking the plate for 30 s before measuring donor and acceptor signals on Biotek plate reader. Dual-filtered luminescence was collected with a 450/50 nm bandpass filter (donor, NanoBiT-BCL-XL protein or NanoBiT-BCL-2 protein) and a 610-nm longpass filter (acceptor, HaloTag NanoBRET ligand) using an integration time of 0.5 s. mBRET ratios were calculated following the NanoBRET™ Nano-Glo® Detection System (Cat. No. N1662, Promega).
In general terms: Bioluminescence resonance energy transfer reports proximity on the nanometre scale.

SMILES strings stand for the structures.

T2 sequence (P10415 1-207 E114A): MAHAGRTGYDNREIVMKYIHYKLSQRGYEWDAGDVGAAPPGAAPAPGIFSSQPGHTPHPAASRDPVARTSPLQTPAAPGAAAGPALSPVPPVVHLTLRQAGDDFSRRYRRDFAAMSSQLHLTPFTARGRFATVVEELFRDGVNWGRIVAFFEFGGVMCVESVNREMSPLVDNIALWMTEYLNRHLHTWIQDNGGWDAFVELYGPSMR
T1 sequence (Q07817 2-212 R103A/D107A/S110A/Q111A): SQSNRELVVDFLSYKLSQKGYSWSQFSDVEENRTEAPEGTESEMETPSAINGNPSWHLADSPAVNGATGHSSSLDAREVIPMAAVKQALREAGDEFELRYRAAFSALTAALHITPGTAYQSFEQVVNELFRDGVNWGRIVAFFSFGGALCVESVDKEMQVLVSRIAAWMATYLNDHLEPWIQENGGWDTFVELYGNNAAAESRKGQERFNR
T3 sequence (Q07817 whole entry): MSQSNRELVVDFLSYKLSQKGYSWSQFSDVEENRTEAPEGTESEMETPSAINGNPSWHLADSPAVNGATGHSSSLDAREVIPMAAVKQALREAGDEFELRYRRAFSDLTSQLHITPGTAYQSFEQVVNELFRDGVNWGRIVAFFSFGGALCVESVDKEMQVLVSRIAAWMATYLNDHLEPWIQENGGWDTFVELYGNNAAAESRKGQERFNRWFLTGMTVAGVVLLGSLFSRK
T3 sequence (Q15369 whole entry, further chain): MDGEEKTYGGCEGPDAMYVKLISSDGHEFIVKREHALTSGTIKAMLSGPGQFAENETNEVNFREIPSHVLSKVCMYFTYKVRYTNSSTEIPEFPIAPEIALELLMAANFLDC
T3 sequence (Q15370 whole entry, further chain): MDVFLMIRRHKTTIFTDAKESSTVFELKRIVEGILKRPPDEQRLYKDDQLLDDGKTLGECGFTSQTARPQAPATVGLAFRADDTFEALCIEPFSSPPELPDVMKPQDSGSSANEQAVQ
T3 sequence (P40337 whole entry): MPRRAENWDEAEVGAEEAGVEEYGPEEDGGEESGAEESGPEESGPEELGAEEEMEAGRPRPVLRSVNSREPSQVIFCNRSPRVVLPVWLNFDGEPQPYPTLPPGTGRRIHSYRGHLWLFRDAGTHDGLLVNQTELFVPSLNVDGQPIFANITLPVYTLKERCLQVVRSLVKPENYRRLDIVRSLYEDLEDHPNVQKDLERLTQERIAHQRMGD

For `Cc1ncsc1-c1ccc(C(C)NC(=O)C2CC(O)CN2C(=O)C(NC(=O)CCCCCCC(=O)N2CCN(CC3(C)CCC(c4ccc(Cl)cc4)=C(CN4CCN(c5ccc(C(=O)NS(=O)(=O)c6ccc(NC(CCN7CCOCC7)CSc7ccccc7)c(S(=O)(=O)C(F)(F)F)c6)cc5)CC4)C3)CC2)C(C)(C)C)cc1` (stereo not shown) [753b], the Ki in assay [1] was determined as 23 ± 4 nM.
For `Cc1ncsc1-c1ccc([C@H](C)NC(=O)[C@@H]2C[C@@H](O)CN2C(=O)[C@@H](NC(=O)CN2CCN(CC(=O)N3CCN(C[C@]4(C)CCC(c5ccc(Cl)cc5)=C(CN5CCN(c6ccc(C(=O)NS(=O)(=O)c7ccc(N[C@H](CCN8C[C@@H]9C[C@H]8CO9)CSc8ccccc8)c(S(=O)(=O)C(F)(F)F)c7)cc6)CC5)C4)CC3)CC2)C(C)(C)C)cc1` [WH244], the “Increase in Ki for the binary interaction, mutant E114A versus WT BCL-2” value in assay [2] is “more than two-fold”. For the same compound, the Ki in assay [2] (mean ± s.d., n=3) is 7.4 ± 1.5 nM. Besides, in assay [3], the “Cellular ternary complex formation with BCL-xL (comparison)” value is listed as “significantly lower compound concentration than 753b”.

The values above are taken from publication PMC10979003, “Development and crystal structures of a potent second-generation dual degrader of BCL-2 and BCL-xL” (Nature Communications, 2024).
